For orientation: Ki means a measure of affinity in units of concentration, obtained from inhibition or displacement. Usually IC50 stands for the concentration that inhibits the measured activity by half. A word on the melting point: it is the temperature, or range, at which the solid turns liquid.

Five compounds from patent US9107954B2, “Bivalent ligands for the treatment of neurological disorders” (Virginia Commonwealth University, priority 2012, dated 2015) can be followed below.

Like-named read-outs stand apart in the source and are kept apart here.

For one series, the target named is mu opioid receptor (MOR) (Homo sapiens (Human), UniProt P35372). Kind of series: MOR competitive radioligand binding, [3H]naloxone, hMOR-expressed CHO cells. As to the method: MOR/CHO cell culture and membrane homogenate preparation followed literature report^52.
Saturation binding was performed by incubating membranes for 90 minutes at 30° C. with 0.5-15 nM [^3H]naloxone in assay buffer in a 0.5 mL volume. […] The reaction was terminated by rapid filtration through Whatman GF/B glass fiber filters, followed by 3 washes with 3 mL ice-cold Tris buffer. Bound radioactivity will be determined by liquid scintillation spectrophotometry at 45% efficiency for [^3H].
For competition binding assay (agonists or antagonists), Hill plots linear regression analysis and the Cheng-Prusoff equation were applied to determine the IC50 and Ki values. In [^35S]GTPγS binding assays, agonist concentration effect curves were fit by non-linear regression to obtain Emax and EC50 values; antagonist inhibition of agonist-stimulated [^35S]GTPγS binding was analyzed by Hill analysis and AD50 values were corrected to Ki values using the Cheng-Prusoff equation. All analyses were using Prism 4.0.
Herein is reported the characterization of this novel molecular probe in for its binding affinity, Ca^2+ flux functional activity, and HIV-1 inhibition potency.

Series [1] concerns the target T1, MOR (Homo sapiens (Human), UniProt P35372). The series is described as follows: Calcium mobilization assay, CCR5-MOR CHO co-expressed cell line (Gqi5), DAMGO-stimulated. It counts as cell-based. The conditions noted are these: cells stimulated with DAMGO; read-out: MOR IC50. How it is done: (§1) Having a cell line that consistently expresses both CCR5 and MOR was essential for studying how the two receptors interact with each other using calcium mobilization assays and cell fusion assays. A previously established MOR Chinese hamster ovarian (CHO) cell line was transfected with a plasmid containing CCR5 tagged with a yellow fluorescent protein on its N-terminus (CCR5-YFP). ^1 After 48 hours cells were sorted based upon the presence of the yellow fluorescent protein tag using a flow cytometer. Cells containing the tagged receptors were then cultured and used in the subsequent assays.
(§2) Calcium mobilization is directly related to G protein-coupled receptor (GPCR) activation and therefore is a useful technique to study the functional activity of new ligands.
(In general: Calcium assays in cells follow changes in intracellular calcium, usually with a dye or a luminescent sensor.)

For series [2], the target named is CCR5 (Homo sapiens (Human), UniProt P51681). Kind of series: Calcium mobilization assay, CCR5-MOR CHO co-expressed cell line (Gqi5), RANTES-stimulated. It counts as cell-based. As to the method:
as §1, §2

Series [3] has as its system fusion of CCR5-MOR CHO target cells (CD4) with HEK effector cells (HIV-1 gp140). It is filed as cell-based. The conditions noted are these: for effect on cell fusion: 1 at 3000 nM, 2 at 10000 nM, maraviroc at 100 nM.
The target of series [4] is T1, MOR. Kind of series: DAMGO-stimulated Ca2+ flux assay in hMOR-CHO cells transfected with Gqi5. It is filed as cell-based.
Series [5] concerns R5-tropic HIV-1SF162 in primary human astrocytes. The series is described as follows: HIV-1SF162 infectivity, Tat luciferase reporter assay in primary human astrocytes. It is filed as cell-based. The conditions noted are these: for effect on viral entry / Tat production, Example 4 / effect on virus invasion (Tat expression), Example 3: MVC 100 nM; for effect on viral entry / Tat production, Example 4: NTX 1.5 μM, 18 h; for effect on virus invasion (Tat expression), Example 3: NTX 1500 nM, naltrexone groups with and without morphine. How it is done: Primary human astrocytes (ScienCell catalog #1901) were cultured in 24-well plates and transfected with the plasmid pBlue3′LTR-luc (NIH AIDS Research and Reference Reagent Program) using Lipofectamine 2000 (Invitrogen) followed by infection with HIV-1. After 18-20 h cells were rinsed twice in 1×PBS then lysed in Cell Culture Lysis Reagent (Promega) and relative Tat protein expression was determined by measuring luciferase activity using the Luciferase Assay System (Promega; catalog # E1500). Light units were measured using a PHERAstar FS plate reader (BMG Labtech).
Primary human astroglial cells were infected by incubation with the neurotropic HIV-1 strain SF162. A concentration of HIV-1 p24 50 pg/10^6 cells was used, and a no virus condition served as a negative control. Viral stocks were quantified by assaying for HIV-1 p24 (Alliance p24 Antigen ELISA Kit; Advanced Bioscience, Kensington, Md.).
HIV-1SF162 infectivity of human astroglia was determined based on the relative amount of Tat protein expressed by the virus using a luciferase-based reporter assay. Reporters under the control of the long terminal repeat (LTR) viral promoter are a robust means of measuring HIV-1 infection, since the LTR is activated by HIV-1 Tat, which is only expressed by infected cells.
As the bivalent ligand 1 has been designed as a molecular probe to study the underlying mechanisms of opioid-enhanced NeuroAIDS by targeting the MOR-CCR5 heterodimerization, a luciferase-based HIV-1SF162) infection assay measuring the relative transactivator of transcription (Tat) protein expression in human astrocytes was performed (FIG. 15). Tat is encoded by HIV-1 and is the first protein to be produced after HIV-1 infection. Thus, Tat expression level is directly proportioned to the extent of HIV-1 invasion. Astrocytes were chosen based on the following facts: first, astrocytes express both the MOR and the CCR5. Second, the human blood-brain barrier (BBB) is composed of interacting adjacent cerebral endothelial cells (CECs) and astrocytes, which makes astrocytes a readily accessible target during the course of HIV infection. Thirdly, during NeuroAIDS development astroglia are important cellular sites within the CNS where opioids synergistically potentiate the pathophysiological effects of HIV-1 infection.

In series [6] the test system is CCR5. Kind of series: Flow cytometry of CCR5 immunofluorescence in HIV-1 infected primary human astrocytes. Conditions: vs uninfected. It counts as cell-based. How it is done: MOR and CCR5 immunoreactivity were detected by direct immunofluorescence in astroglial cells by flow cytometric analysis. Cells were washed in phosphate-buffered saline (PBS)-0.1% bovine serum albumin (BSA) buffer and incubated with primary MOR antibody followed by a secondary antibody conjugated to allophycocyanin (APC) (Biolegend, Inc; catalog #408001) and Alexa Fluor® 488 conjugated anti-mouse CD195 (CCR5) antibody (Biolegend, Inc; catalog #107008) in permeabilization buffer (PBS-0.1% BSA-0.1% Triton X-100) at a 1:500 dilution. Fluorescence was measured from 10,000 gated cells per treatment in each experiment using a FACSCanto II flow cytometer (BD Biosciences, San Jose, Calif.). Auto-fluorescence was compensated by setting the detector voltage to the minimum level that discriminates between auto-fluorescence and specific immunofluorescence in both negative and positive controls. Isotype control antibodies were used to define settings in histogram plot analyses.
We quantitatively analyzed the effect of MVC and the bivalent compound on CCR5 and MOR expression levels in virally infected astrocytes by flow cytometry. […] Approximately 20,000 events were analyzed per treatment condition in each experiment and size discrimination was used as a crude method for viability determination.
A general note: A flow cytometer gives signals particle by particle.

The subject of a further series is human astrocytes. The series is described as follows: Cytotoxicity assay, AOPI live/dead labeling of human astrocytes. It is filed as cell-based. How it is done:
Cell viability was assessed by measurement of both live and dead cells using dual (green/red) fluorescence labeling with AOPI analyzed with Cellometer Vision CBA (Nexcelom Bioscience LLC).
To determine whether HIV-1±morphine exposure affected astrocyte viability in the presence or absence of MVC or the bivalent compound, a cell death assay was performed at 24 h after treatment.

CCR5 (Homo sapiens (Human), UniProt P51681), sequence (P51681 whole entry): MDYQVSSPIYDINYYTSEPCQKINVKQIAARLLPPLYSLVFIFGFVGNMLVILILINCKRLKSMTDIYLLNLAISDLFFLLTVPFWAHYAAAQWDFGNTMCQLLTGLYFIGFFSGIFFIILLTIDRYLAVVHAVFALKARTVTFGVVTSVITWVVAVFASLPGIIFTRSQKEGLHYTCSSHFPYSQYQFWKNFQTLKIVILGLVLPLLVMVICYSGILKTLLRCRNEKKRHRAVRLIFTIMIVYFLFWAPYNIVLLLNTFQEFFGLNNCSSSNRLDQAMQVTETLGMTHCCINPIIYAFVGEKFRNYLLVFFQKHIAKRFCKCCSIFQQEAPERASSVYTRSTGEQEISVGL

`Cc1nnc(C(C)C)n1C1CC2CCC(C1)N2CC[C@H](NC(=O)C1CCC(F)(F)CC1)c1cccc(NC(=O)COCC(=O)NCCCCCCCNC(=O)COCC(=O)N[C@@H]2CC[C@@]3(O)[C@H]4Cc5ccc(O)c6c5[C@@]3(CCN4CC3CC3)[C@H]2O6)c1` (stereo partly shown) [compound 2]: the Ki at mu opioid receptor (MOR) (Example 1, read-out: binding affinity to the mu opioid receptor, Ki) was 9.18 ± 3.44 nM; on mu opioid receptor (MOR) (mean of three experiments, read-out: Radioligand binding Ki ± SEM), 9.2 ± 3.4 nM. For the same compound, the concentration for half-maximal inhibition (IC50) was 17.4 ± 5.74 nM at MOR [1]; 14000 ± 345 nM at CCR5 [2] (cells stimulated with RANTES); 37.8 ± 4.4 nM at MOR [4] (DAMGO stimulated, hMOR-CHO Gqi5, read-out: Ca2+ inhibition IC50 ± SEM). The “fold loss in CCR5 antagonist activity compared to maraviroc” value on CCR5 [2] stood at 800 fold. Moreover, in series [3], the “effect on cell fusion” value was “significantly lowered cell fusion”. Besides, in [3] (morphine 300 nM), the “amplification of cell fusion inhibition when morphine present” value is 2 fold. Also, the “agonism in Ca2+ mobilization assay” value on MOR [4] (hMOR-CHO Gqi5, data not shown) is “No agonism”.
With `CN1CC[C@]23c4c5ccc(O)c4O[C@H]2[C@@H](O)C=C[C@H]3[C@H]1C5` [morphine, reference compound], the “fold increase in Tat expression after infection with R5 in combination with morphine” value in [5] (morphine 500 nM, vs uninfected) is about 2.7 fold. Further, in the series on CCR5 [6], the “fold increase in CCR5 expression levels, HIV-1R5 in combination with morphine” value is on record as 3.3 fold. In addition, in [3] (morphine 300 nM, +CD4, vs +CD4 alone), the “effect of morphine on cell fusion” value was “significant increase”.
Turning to `Cc1nnc(C(C)C)n1C1CC2CCC(C1)N2CCC(NC(=O)C1CCC(F)(F)CC1)c1ccc(N)cc1` (stereo not shown), the melting point was in the range of 109 to 110 °C.
As to `Cc1nnc(C(C)C)n1C1C[C@H]2CC[C@@H](C1)N2CC[C@H](NC(=O)C1CCC(F)(F)CC1)c1ccccc1` (stereo in doubt) [Maraviroc, reference compound], in series [5], the “effect on viral entry / Tat production, Example 4” value was “considerably inhibited viral entry” and the “effect on virus invasion (Tat expression), Example 3” value is reported as “virus invasion is decreased”. Moreover, in the series with human astrocytes (100 nM, HIV-1 ± morphine, 24 h), the astrocyte viability result is on record as “not significantly different”. Further, the “toxicity in the astrocytes, cytotoxicity assays (not shown)” value with human astrocytes (Example 3) was “neither maraviroc nor 1 had any toxicity”. The “toxicity to the cells at higher concentration” value in the series on human astrocytes (concentration higher than 100 nM) is reported as “increased toxicity to the cells”. Also, the “effect on cell fusion” value in series [3] is “significantly lowered cell fusion”. For the same compound, in series [3] (morphine 300 nM), the “amplification of cell fusion inhibition when morphine present” value is “not amplified”.
As for `O=C1CC[C@@]2(O)[C@H]3Cc4ccc(O)c5c4[C@@]2(CCN3CC2CC2)[C@H]1O5` [Naltrexone, reference compound], in series [5], the “effect on viral entry / Tat production, Example 4” value is on record as “did not show significant effect” and the “effect on virus invasion (Tat expression), Example 3” value is on record as “no effect on virus invasion”.
